Assay results reported in PubChem BioAssay (NCI).
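Step 1: Grow cells in 96-well plates. Step 2: Expose to compound for 48 hours at 5 concentrations. Step 3: Interpolate endpoints linearly; if unreached, use highest concentration. GI50 = concentration required for 50% inhibition of growth. TGI denotes the concentration required for complete inhibition of growth.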

How the values were obtained:
Assay in all cases: NCI tumour cell line growth inhibition, 48 h
HOP-92 NSCLC = tested on: HOP-92 NSCLC
CCRF-CEM leukemia = tested on: CCRF-CEM leukemia
OVCAR-5 ovarian = tested on: OVCAR-5 ovarian
NCI-H460 lung = tested on: NCI-H460 lung
OVCAR-3 ovarian = tested on: OVCAR-3 ovarian
SN12C renal = tested on: SN12C renal
M14 melanoma = tested on: M14 melanoma
OVCAR-4 ovarian = tested on: OVCAR-4 ovarian
UACC-62 melanoma = tested on: UACC-62 melanoma
HCC-2998 colon = tested on: HCC-2998 colon
SF-539 CNS = tested on: SF-539 CNS
HT29 colon = tested on: HT29 colon
NCI-H23 lung = tested on: NCI-H23 lung
SW-620 colon = tested on: SW-620 colon
RPMI-8226 leukemia = tested on: RPMI-8226 leukemia
SK-OV-3 ovarian = tested on: SK-OV-3 ovarian
A549 NSCLC = tested on: A549 NSCLC
EKVX NSCLC = tested on: EKVX NSCLC
SNB-75 CNS = tested on: SNB-75 CNS
BT-549 breast = tested on: BT-549 breast
HCT-116 colon = tested on: HCT-116 colon
U251 CNS = tested on: U251 CNS
T-47D breast = tested on: T-47D breast
UO-31 renal = tested on: UO-31 renal
LOX IMVI melanoma = tested on: LOX IMVI melanoma
MALME-3M melanoma = tested on: MALME-3M melanoma
SK-MEL-28 melanoma = tested on: SK-MEL-28 melanoma
HOP-62 NSCLC = tested on: HOP-62 NSCLC
SR leukemia = tested on: SR leukemia
HL-60(TB) leukemia = tested on: HL-60(TB) leukemia
MDA-MB-435 = tested on: MDA-MB-435
NCI-H522 lung = tested on: NCI-H522 lung
MOLT-4 leukemia = tested on: MOLT-4 leukemia
HS 578T breast = tested on: HS 578T breast
K-562 leukemia = tested on: K-562 leukemia
SNB-19 CNS = tested on: SNB-19 CNS
SK-MEL-2 melanoma = tested on: SK-MEL-2 melanoma
IGROV1 ovarian = tested on: IGROV1 ovarian
OVCAR-8 ovarian = tested on: OVCAR-8 ovarian
SF-268 CNS = tested on: SF-268 CNS
ACHN renal = tested on: ACHN renal
SK-MEL-5 melanoma = tested on: SK-MEL-5 melanoma
COLO 205 colon = tested on: COLO 205 colon
HCT-15 colon = tested on: HCT-15 colon
KM12 colon = tested on: KM12 colon
A498 renal = tested on: A498 renal
786-0 renal = tested on: 786-0 renal
RXF 393 renal = tested on: RXF 393 renal
NCI/ADR-RES ovarian = tested on: NCI/ADR-RES ovarian
SF-295 CNS = tested on: SF-295 CNS
DU-145 prostate = tested on: DU-145 prostate
MDA-MB-231 breast = tested on: MDA-MB-231 breast
MCF7 breast = tested on: MCF7 breast
PC-3 prostate = tested on: PC-3 prostate
TK-10 renal = tested on: TK-10 renal
NCI-H226 lung = tested on: NCI-H226 lung
CAKI-1 renal = tested on: CAKI-1 renal

## NCCCCC(NC(=O)C(N)CCCN=C(N)N)C(=O)NC(CCCCN)C(=O)NC(CCCN=C(N)N)C(=O)NC(CCCN=C(N)N)C(=O)NC(CCC(N)=O)C(=O)NC(CCCN=C(N)N)C(=O)NC(CCCN=C(N)N)C(=O)NC(CCCN=C(N)N)C(=O)NCC(=O)NCC(=O)O (centres undefined)
HOP-92 NSCLC
  GI50: > 50 µM
  TGI: > 50 µM
CCRF-CEM leukemia
  GI50: 1.53 µM
  TGI: 8.52 µM
OVCAR-5 ovarian
  GI50: > 50 µM
  TGI: > 50 µM
NCI-H460 lung
  GI50: > 50 µM
  TGI: > 50 µM
OVCAR-3 ovarian
  GI50: > 50 µM
  TGI: > 50 µM
SN12C renal
  GI50: > 50 µM
  TGI: > 50 µM
M14 melanoma
  GI50: > 50 µM
  TGI: > 50 µM
OVCAR-4 ovarian
  GI50: > 50 µM
  TGI: > 50 µM
UACC-62 melanoma
  GI50: > 50 µM
  TGI: > 50 µM
HCC-2998 colon
  GI50: > 50 µM
  TGI: > 50 µM
SF-539 CNS
  GI50: > 50 µM
  TGI: > 50 µM
HT29 colon
  GI50: > 50 µM
  TGI: > 50 µM
NCI-H23 lung
  GI50: > 50 µM
  TGI: > 50 µM
SW-620 colon
  GI50: > 50 µM
  TGI: > 50 µM
RPMI-8226 leukemia
  GI50: > 50 µM
  TGI: > 50 µM
SK-OV-3 ovarian
  GI50: > 50 µM
  TGI: > 50 µM
A549 NSCLC
  GI50: > 50 µM
  TGI: > 50 µM
EKVX NSCLC
  GI50: > 50 µM
  TGI: > 50 µM
SNB-75 CNS
  GI50: > 50 µM
  TGI: > 50 µM
BT-549 breast
  GI50: > 50 µM
  TGI: > 50 µM
HCT-116 colon
  GI50: > 50 µM
  TGI: > 50 µM
U251 CNS
  GI50: > 50 µM
  TGI: > 50 µM
T-47D breast
  GI50: > 50 µM
  TGI: > 50 µM
UO-31 renal
  GI50: > 50 µM
  TGI: > 50 µM
LOX IMVI melanoma
  GI50: > 50 µM
  TGI: > 50 µM
MALME-3M melanoma
  GI50: > 50 µM
  TGI: > 50 µM
SK-MEL-28 melanoma
  GI50: > 50 µM
  TGI: > 50 µM
HOP-62 NSCLC
  GI50: > 50 µM
  TGI: > 50 µM
SR leukemia
  GI50: > 50 µM
  TGI: > 50 µM
HL-60(TB) leukemia
  GI50: > 50 µM
  TGI: > 50 µM
MDA-MB-435
  GI50: > 50 µM
  TGI: > 50 µM
NCI-H522 lung
  GI50: > 50 µM
  TGI: > 50 µM
MOLT-4 leukemia
  GI50: > 50 µM
  TGI: > 50 µM
HS 578T breast
  GI50: > 50 µM
  TGI: > 50 µM
K-562 leukemia
  GI50: > 50 µM
  TGI: > 50 µM
SNB-19 CNS
  GI50: > 50 µM
  TGI: > 50 µM
SK-MEL-2 melanoma
  GI50: > 50 µM
  TGI: > 50 µM
IGROV1 ovarian
  GI50: > 50 µM
  TGI: > 50 µM
OVCAR-8 ovarian
  GI50: > 50 µM
  TGI: > 50 µM
SF-268 CNS
  GI50: > 50 µM
  TGI: > 50 µM
ACHN renal
  GI50: > 50 µM
  TGI: > 50 µM
SK-MEL-5 melanoma
  GI50: > 50 µM
  TGI: > 50 µM
COLO 205 colon
  GI50: > 50 µM
  TGI: > 50 µM
HCT-15 colon
  GI50: > 50 µM
  TGI: > 50 µM
KM12 colon
  GI50: > 50 µM
  TGI: > 50 µM
A498 renal
  GI50: > 50 µM
  TGI: > 50 µM
786-0 renal
  GI50: > 50 µM
  TGI: > 50 µM
RXF 393 renal
  GI50: > 50 µM
  TGI: > 50 µM
NCI/ADR-RES ovarian
  GI50: > 50 µM
  TGI: > 50 µM
SF-295 CNS
  GI50: > 50 µM
  TGI: > 50 µM
DU-145 prostate
  GI50: > 50 µM
  TGI: > 50 µM
MDA-MB-231 breast
  GI50: > 50 µM
  TGI: > 50 µM
MCF7 breast
  GI50: > 50 µM
  TGI: > 50 µM
PC-3 prostate
  GI50: > 50 µM
  TGI: > 50 µM
TK-10 renal
  GI50: > 50 µM
  TGI: > 50 µM
NCI-H226 lung
  GI50: > 50 µM
  TGI: > 50 µM
CAKI-1 renal
  GI50: > 50 µM
  TGI: > 50 µM
